The values below come from patent US20130231472A1, “USE OF MOLECULAR MARKERS FOR THE PRECLINICAL PROFILING OF INHIBITORS OF ENZYMES HAVING HISTONE DEACETYLASE ACTIVITY” (priority 2002, published 2013).

The test system of assay [1] is splenocytes from leukemic mice (>75% blasts). The assay is described as follows: Apoptosis of cultured leukemic splenocytes/APL blasts (propidium iodide staining). Type of assay: cell-based. Particulars: VPA 1 mM, 48 hours, FIG. 3B. As for the experimental part:
FIG. 3: (A) Secondary acute promyelocytic leukemias were induced in mice as described above. Leukemic mice were then treated with placebo (Ctrl), or VPA (400 mg/kg every 12 hours). Mice were sacrificed 48 hours after beginning of treatments, and then leukemic spleens were fixed and either stained for histological examination (hematoxylin-eosyn, left panels), or analyzed for the presence of apoptotic cells (TUNEL assay, right panels). (B) Secondary leukemias were obtained as above. Mice were sacrificed when leukemic invasion of peripheral organs was >75% (spleen). Splenocytes from healthy mice (taken as control, left panel), or from leukemic mice (>75% blasts, right panel) were put in culture and then treated with VPA (1 mM) for 48 hours. At the end of the treatment, apoptosis was measured by propidium iodide staining. The sub-G1 area indicates the hypodiploid DNA peak corresponding to cells with fragmented DNA undergoing apoptosis.
FIG. 5: Leukemic blasts were obtained from spleens of secondary leukemic mice with a >75% invasion of tumor cells, as assessed by histological examination. Cells were put in culture and treated with VPA (1 mM) for 48 hours, in the absence or in the presence of the indicated TRAIL and/or caspase 8 inhibitors as indicated. At the end of the treatment, apoptosis was measured as described above.

Assay [2] relates to TRAIL. The assay is described as follows: TRAIL expression in Calu-3 cells (quantitative PCR). Type of assay: cell-based, human. Particulars: VPA 1 mM, FIG. 4B. As for the experimental part:
FIG. 4: (A) Secondary acute promyelocytic leukemias were induced in mice as described above. Leukemic mice or healthy mice (Ctrl) were then treated with placebo (lanes 1, 3), VPA (400 mg/kg every 12 hours), all-trans retinoic acid (a 21-day-release pellet containing 5 mg RA or placebo: lanes 8-9), and VPA plus retinoic acid (lanes 10-11). Mice were sacrificed 18 hours (lanes 4-5), or 36 hours after beginning of treatment (lanes 3, 6-7, 10-11): total RNAs were collected from the spleens (with a >75% invasion of leukemic blasts as assessed by Giemsa staining) and analyzed by RNAse protection assay to check for expression of TRAIL. Faf and GAPDH were used as controls, not affected by these treatments. (B) Calu-3 cells (a human, non-small cell lung cancer derived cell line) were treated with VPA (1 mM) for the indicated times. RNA was extracted and analyzed by quantitative PCR (Perkin-Elmer), using primers specific for TRAIL. GAPDH was used to normalize.

In assay [3] the test system is HDAC-2. The assay is described as follows: HDAC-2 protein levels in NIH3T3 cells. Type of assay: cell-based, mouse.
In assay [4] the test system is HDAC-2. The assay is described as follows: HDAC-2 pulse labeling and pulse-chase analysis in HEK293T cells. Type of assay: cell-based, human. How it is done: FIG. 8: Synthesis and degradation rate of HDAC-2 were analyzed by pulse metabolic labeling with ^35S-methionine and pulse-chase analyses. ^35S-labelled HDAC-2 was detected by HDAC-2 specific immune precipitation followed by SDS-PAGE separation and autoradiography. (A) Pulse labeling for 1 h was performed in F9 and HEK293T cells which had been left untreated or were pretreated with 1 mM VPA for 24 h. (B) For pulse chase analysis cells were left untreated or pretreated for 24 h with 1 mM VPA and labeled with ^35S-methionine for an additional hour in the absence or presence of VPA. After removal of ^35S-methionine and addition of non-labeled methionine the elimination of radiolabeled HDAC-2 was followed over a period of 6 h. A pulse chase analysis was also performed in HEK293T cells without VPA pretreatment and addition of VPA (indicated by the (+) row) only at the time when the chase period was started. From HEK293T cell extracts also HDAC-3 was precipitated for reference.

The test system of assay [5] is HDAC-2. The assay is described as follows: Ubiquitinated proteins in anti HDAC-2 immune precipitates (Westernblot against ubiquitin). Type of assay: cell-based. Particulars: FIG. 10A. The source says: FIG. 10: (A) The total amount of high molecular weight poly-ubiquitinated protein was not altered by VPA treatment of cells (left two lanes). The presence of ubiquitinated proteins in anti HDAC-2 immune precipitates is shown in the right part of the panel. […] Ubiquitinated proteins in the precipitates were detected by Western blot analysis. For lane N a non-immune serum was used instead of the anti HDAC-2 antibody. (B) The presence of mono- and/or oligo-ubiquitinated HDAC-2 upon VPA treatment of HEK293T cells was determined by ectopic expression of His6-tagged ubiquitin followed by VPA-treatment for 36 h as indicated. The proteasome inhibitor MG-132 was added 4 h prior to analysis to enhance the accumulation of ubiquitinated proteins. Electrophoretic mobility and unaltered presence of non-ubiquitinated HDAC-2 were determined by Westernblot analysis of whole cell extracts (left panel). […] Anti-HDAC-2 immuno-reactive bands with the expected mobility of mono- or poly-ubiquitinated HDAC-2 are indicated by a bracket.

Assay [6] has as its system Ubc8. The assay is described as follows: Ubc8 expression in F9 cells (Northern blot, real time PCR). It is filed as cell-based, murine. Particulars: 1 mM VPA, FIG. 11. As for the experimental part: FIG. 11 (A) F9 cells were treated for indicated times with 1 mM VPA and abundance of Ubc8 mRNA was determined by Northern blot analysis from 5 μg polyA^+ mRNA with a probe drived from the 3′-UTR of the cDNA. GAPDH mRNA was determined as reference. Phosphorimager analysis was performed for quantitative evaluation and relative values normalized for GAPDH are presented below the graph. One of two experiments with similar results is shown. (B) Ubc8 mRNA was also determined by real time PCR assuming an 1.5-fold amplification per cycle. The amplicon was part of the coding sequence of the Ubc8 mRNA. F9 cells were treated for 17 h with 1 mM VPA (V) or 100 nM TSA (T). Results were normalized for GAPDH expression. Average values ± range of duplicate determinations are shown.

Regarding `CCCC(CCC)C(=O)O` [VPA, Valproic acid], in assay [1], the “apoptosis (propidium iodide, sub-G1)” value is given as “induces massive apoptosis of leukemic cells”. Moreover, the “TRAIL expression (quantitative PCR, normalized to GAPDH)” value in assay [2] is listed as “strongly induced”. Also, in assay [3], the HDAC-2 protein levels entry is “reduced”. Also, in assay [4] (1 mM VPA pretreatment 24 h, FIG. 8A), the “HDAC-2 synthesis rate (35S-methionine pulse labeling)” value is listed as “No substantial difference in HDAC-2 synthesis rate”. Moreover, the “half-life of HDAC-2 (pulse-chase)” value in assay [4] (1 mM VPA pretreatment 24 h, FIG. 8B) is listed as “substantially decreased”. The “HDAC-2 protein degradation rate” value in assay [4] (VPA added only at the time of chase, FIG. 8B) is “no effect”. For the same molecule, in assay [5] (VPA 1.5 mM, 24 h, ALLN 5 μM), the “amount of ubiquitinated protein precipitated with antibody against HDAC-2” value is reported as “increase the amount of this anti-ubiquitin reactive protein”. Moreover, in assay [5] (VPA treatment), the “overall amount of cellular ubiquitinated proteins” value is on record as “moderately reduced”. Further, the “expression of the gene encoding Ubc8” value in assay [6] is reported as “inducible by VPA”.
